# Patent US20250283035A1, “MORPHOGENIC COMPOUND-RELEASING MICROSPHERES AND USE IN BIOINK” (UVic Industry Partnerships Inc., priority 2018, published 2025)
# “And” between values parts separate entries of the source, which are not always exact repeats. Identical values can stand only once. Like-named read-outs stand apart in the source and are kept apart here.
# What was measured:
# [1] = 46-day purmorphamine release study from PCL microspheres in PBS; type: physicochemical
# Method: A 46-day release study was performed to determine the release kinetics of purmorphamine. Each sample contained 10 mg of microspheres and 1 ml of PBS placed on 1.5 ml micro tubes (Axygen®). Samples for each day of collection (n=3) were placed on a VWR® mini shaker at 330 rpm at 37° C. and were collected every 4 days. After collection, samples were washed with de-ionized water and freeze-dried for further analysis. The drug was extracted from the microspheres and then quantified with high-performance liquid chromatography (HPLC) to estimate the puro concentration in the microspheres. Next, 10 mg of microspheres was placed in 1.5 ml microtubes in triplicate. […] The samples were then placed on the vortex mixer (Eppendorf® MixMate®) at 2500 rpm for 5 minutes. […] The samples were then placed at −80° C. for 5 minutes followed by centrifugation (Eppendorf 5424) at 1500 rpm for five minutes. The samples were filtered using 0.2 μm PTFE syringe filters before adding the supernatant to amber vials. HPLC was performed using an Agilent 1200 equipped with quaternary pump and diode-array detector (DAD) to quantify the amount of puro present in samples. A standard of puro with eleven dilutions of a stock solution diluted in ACN was used to determine the concentrations of the samples. The column used was an Eclipse Plus C18 (Agilent) with 5 μm particle size, 4.6 mm internal diameter (ID), and was 150-mm long with similar phase and ID guard column. Samples were analyzed at 300 nm after mass spectroscopy was used to generate a spectrum for puro. Mass spectroscopy information was acquired using an Ultimate 3000 HPLC system connected to an Orbitrap (Thermo Fisher Scientific). The system was used in direct infusion mode with no separation. Solvents used for this analysis were HPLC-grade ACN mixed with […] dispensed from a Milli-Q integral purification system (Millipore, ON, Canada). Both contained 0.1% V/V trifluoroacetic acid (TFA) (Fisher Scientific, Hampton, NH). […] ChemStation software was used for data analysis with auto-integration adjusted manually when needed.
# [2] = drug in microspheres, literature values, cited from earlier work
# hiPS aggregates [3] = assay: Neurite morphology analysis of hiPS aggregates, IncuCyte (Example 2); type: cell-based, human; details: day 12
# Method: ReLeSR™ was used to select and remove undifferentiated hiPSs from the wells. Uniform hiPS aggregates were formed by adding a single cell suspension in STEMdiff™ Neural Induction Medium of 1×106 hiPSs to wells in AggreWell™ 800 plates and centrifuged for 5 min at 100×g to deposit the cells at the bottom of each microwell. Before incorporation with the cells, the microspheres were sterilized by low power air-plasma treatment (Harrick PDC-32G) for 30 seconds as described previously. […]
# Immunostained cell aggregates were imaged with an IncuCyte® ZOOM automatic live-cell imaging system (Essen BioScience, Ann Arbor, MI) at 10× magnification. Quantification of the morphological metrics of neurite length and branch points was performed using IncuCyte® ZOOM Software (2016A). Using the NeuroTrack™ software module, day 12 and day 20 green channel fluorescence (anti-beta-tubulin III positive) images were analyzed by masking the total neurite coverage and calculating the average length and branch points with the same processing definition. The cell aggregate area was analyzed for day 12 images using a NeuroTrack™ software processing definition, whereas a Basic Analyzer processing definition (used for confluence masking) was used to analyze the day 20 images. […]
# [4] = In vitro guggulsterone release study from PCL microspheres in PBS; type: physicochemical
# Method: In vitro release studies were performed in triplicate. Ten milligrams of microspheres was suspended in 1 mL of PBS in a microtube. The tubes were then loaded onto a Sarstedt Sarmix mr-1 tube rotator and incubated at 37° C. The PBS supernatant for each tube was replaced every 2 days while tubes were removed and collected from the rotator at the following predetermined time points: day 2, 4, 8, 12, 16, 20, 24, 28, 36, and 44. For the collected tubes, the PBS supernatant was removed, and the microspheres were washed with deionized water, lyophilized, and weighed. The remaining GS concentration inside the microspheres was determined as previously described by dissolving microspheres with DCM, extracting the drug/precipitating PCL with 100% ethanol, and reading the absorbance at 255 nm using a Tecan Infinite® M200Pro plate reader (Gomez, et al., 2015). The amount of GS released was calculated by subtracting the GS remaining in the microspheres from the theoretical GS present in each amount of microspheres at day 0. Percentages of the drug that were assumed to be released for each sample day were calculated by comparing drug amounts leftover and initial amounts of the drug inside the microspheres to create a cumulative release graph.
# hiPS aggregates [5] = assay: Flow cytometry of βIII-tubulin (TUJ1), Olig2, GFAP in hiPS aggregates (Example 2); type: cell-based, human; set-up: unit of the concentration uncertain
# Method: ReLeSR™ was used to select and remove undifferentiated hiPSs from the wells. Uniform hiPS aggregates were formed by adding a single cell suspension in STEMdiff™ Neural Induction Medium of 1×106 hiPSs to wells in AggreWell™ 800 plates and centrifuged for 5 min at 100×g to deposit the cells at the bottom of each microwell. Before incorporation with the cells, the microspheres were sterilized by low power air-plasma treatment (Harrick PDC-32G) for 30 seconds as described previously. When forming microsphere-incorporated hiPS aggregates, 0.5 mg of microspheres suspended in STEMdiff™ Neural Induction Medium was added to each AggreWell™ 800 well for a total of 2 mL of media in each well and centrifuged for 5 min at 100×g (FIGS. 11A-11B). The aggregates in the AggreWell™ 800 plates were maintained in 2 mL of STEMdiff™ Neural Induction Medium with daily media changes for 5 days. On day 5, the aggregates were harvested for immunocytochemistry or transferred to PLO/laminin-coated 24-well plates at a single aggregate per well for the remaining duration of the cell study (until day 12 or day 20). […] Negative control treatments contained aggregates without microspheres and media without soluble drug added. […]
# Cell marker expression was quantified with flow cytometry on day 20 for β-tubulin III, Olig-2, and GFAP. […]
# [6] = ref [50]; cited from earlier work
# [7] = quoted in Example 1 from ref [42]; cited from earlier work
# [8] = Degradation of fibrin scaffolds containing drug (Example 3)
# [9] = Guggulsterone encapsulation efficiency (extraction, HPLC-MS); type: physicochemical; details: PCL microspheres, 0.6 μg/mg GS/PCL; of total GS added
# Method: The amount of GS encapsulated per unit weight of microspheres was determined by extracting the drug from the fabricated microspheres. A measured amount of lyophilized microspheres was placed in a 1.5 mL propylene microtube, and 200 μL of ACN was added to each sample. The samples were vortexed at 3000 rpm for 30 seconds, vortexed for 5 minutes at 350 rpm (Eppendorf® MixMate®), and mixed with a micropipette for 10 seconds. These mixing steps were repeated twice to dissolve the PCL. Next, 1000 μL of additional ACN was added to the samples and mixed by micropipette for 10 seconds and then vortexed at 3000 rpm for 30 seconds. The solution was then centrifuged at 22° C. and 13000 rpm for 5 min using an Eppendorf 5424 Microcentrifuge. Thereafter, 1000 μL of the supernatant was transferred to a microtube and diluted as necessary for high performance liquid chromatography-mass spectrometry (HPLC-MS). The concentration of the drug in the sample was determined using HPLC-MS (Ultimate 3000 MSQ, Thermo Scientific with Chromeleon™ software) and run against a GS standard composed of five dilutions of a stock solution composed of GS dissolved in ACN. […]
# [10] = cited from earlier work
# [11] = cited from earlier work; remark: listed apart in the source
# [12] = if release rate consistent beyond 44 days
molecule,measurement,setting,value
"c1ccc2c(Oc3nc(Nc4ccc(N5CCOCC5)cc4)c4ncn(C5CCCCC5)c4n3)cccc2c1 [puro, purmorphamine]",cumulative puro release,[1]; day 28,68%
same,cumulative puro release,[1]; day 44,~87%
same,cumulative puro release,"[1]; day 46, of theoretically encapsulated drug",91%
same,puro released on average per day,[1]; from 0.34 mg of puro-loaded microspheres added to cell aggregates,~0.0748 µg
same,puro released every day,[1]; from 10 mg of microspheres,2.2 µg
C[C@]12CCC(=O)C=C1CC[C@@H]1[C@@H]2[C@@H](O)C[C@@]2(C)[C@H]1CC[C@]2(O)C(=O)CO [hydrocortisone],"encapsulation efficiency, previously reported",[2],~9%
guggulsterone [GS],neurite length per cell cluster area,hiPS aggregates [3],greater neurite length compared to the negative control
same,concentration of GS released,[4]; 0.5 mg of microspheres per aggregate-forming well,~0.93 ng/mL
same,cumulative GS release,[4]; day 28,~45%
same,cumulative GS release,"[4]; day 44 (final day), of drug theoretically encapsulated",~60% and ~62%
same,average release of GS per day,"[4]; from 10 mg of microspheres, slope of graph",37 ng
same,additional duration of GS delivery beyond 44 days,[4]; [12],27 days
same,total duration of drug release,[4]; [12],71 days
same,total amount of guggulsterone encapsulated,[4]; in 10 mg of microspheres,~2550 ng
same,theoretical total amount of drug initially in each sample,"[4]; in 10 mg of microspheres, day 0",~2.5 µg
same,TUJ1 expression (flow cytometry),"hiPS aggregates [5]; day 20, soluble GS at 0.25 µM",~4%
same,TUJ1 expression (flow cytometry),"hiPS aggregates [5]; day 20, soluble GS at 2.5 µM",~7%
same,susceptibility to degradation,[6],"susceptible to degradation, including photodegradation"
same,"GS encapsulation efficiency, previously reported",[7],42.4%
same,degradation of fibrin scaffolds containing the drug,[8],degraded much faster than samples containing RA
same,GS encapsulation efficiency,[9],42.4±3.5% and ~42%
same,"cumulative GS release, previously reported","[10]; day 28, quoted in Example 1 from refs [40, 42]",45%
same,"cumulative GS release, previously reported","[10]; day 44, quoted in Example 1 from refs [40, 42]",55%
"CC1=C(/C=C/C(C)=C/C=C/C(C)=C/C(=O)O)C(C)(C)CCC1 [RA, retinoic acid]","encapsulation efficiency, previously reported",[2],60.0%
same,"encapsulation efficiency, previously reported",[2]; listed as retinoic acid,~60%
same,cumulative RA release from PCL microspheres,"[11]; day 28, RA concentration 7.5 times greater",~53%
same,cumulative RA release from PCL microspheres,"[11]; day 28, lower RA concentration",28%
O=C1CN=C(c2ccccc2Cl)c2cc([N+](=O)[O-])ccc2N1 [Clonazepam],"encapsulation efficiency, previously reported",[2],72.6-95.1%
CC(=O)OCC(=O)[C@@]1(O)CC[C@H]2[C@@H]3CCC4=CC(=O)CC[C@]4(C)[C@H]3[C@@H](O)C[C@@]21C [hydrocortisone 21-acetate],"encapsulation efficiency, previously reported",[2],~55%
